Test results from patent US10106491B2, “Substituted biaryl alkyl amides” (BioTheryX, Inc., priority 2011, dated 2018).

Assays:
[1] = biological target: T1, hCdc34 (Homo sapiens, UniProt P49427); conditions: Ceccarelli et al., Cell 145:1075-1087, 2011; cited from earlier work
T1 sequence (P49427 1-236): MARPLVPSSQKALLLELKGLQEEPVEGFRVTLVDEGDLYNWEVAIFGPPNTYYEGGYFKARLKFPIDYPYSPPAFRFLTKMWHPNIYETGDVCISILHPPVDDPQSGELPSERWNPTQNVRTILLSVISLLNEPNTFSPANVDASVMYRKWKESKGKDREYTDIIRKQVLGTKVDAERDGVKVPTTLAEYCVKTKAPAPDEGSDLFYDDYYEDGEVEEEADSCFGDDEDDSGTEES

[2] = tested on: MDA-MB-468-NFkB-Luc2p cell line; test: TNF-α induced NFkB reporter assay (luciferase); type: cell-based; conditions: 1 h before 10 ng/ml TNF-α for 6 h, FIG. 3; for result in TNF-α induced NFkB reporter assay: tested at 20 μM and 5 μM
Method: The effects of the compounds described herein on the activation of TNF-mediated pathways were assessed using an MDA-MB-468NFkB-Luc2p reporter cell line (FIG. 3). To construct this cell line, MDA-MB-468 cells were transfected with pGL4.32[luc2P/NF-kB-RE/Hygro] vector (Promega) using TransFast transfection reagent (Promega) according to manufacturer's standard protocol. Briefly, cells were grown in RPMI supplemented with 10% FBS and plated onto sterile 6-well plates (Nunc). When cells became ˜75% confluent, media in each well was removed and replaced with 1 mL RPMI (no FBS) containing […] vector and TransFast for 1 h at 37° C. 2 mL of RPMI with FBS is then added to the well and after 24 h, 500 ug/ml of hygromycin was added for selection to generate a stable reporter cell line.
Stable MDA-MB-468-NFkB-Luc2p cells were plated onto optical-bottom, white wall 96-well plates at 10,000 cells per well and allowed to attach overnight. Compounds B1 through B14 were added at 20 μM and 5 μM respectively for 1 h prior to treatment with 10 ng/ml of recombinant human TNF-α for 6 h. Luciferase signal was determined using the Luciferase Assay System (Promega) and a luminometer.

[3] = tested on: Panc-1 (pancreatic cancer) cell line; test: Panc-1 proliferation assay (MTS); type: cell-based; conditions: for growth rate: 72 h, DMSO control = 100%
Method: (§1) Proliferation assays were conducted to assess the effects of the compounds described herein on the growth rate of neoplastic cells. For each of the proliferation assays described herein, SK-MEL-28, MDA-MB-468 or Panc-1 cells were grown in RPMI supplemented with 10% FBS and plated onto sterile 96-well tissue culture plates at 20,000 cells per well and allowed to attach overnight. Compounds B1 through B14 were added at 20 μM and 10 μM respectively in the SK-MEL-28 proliferation assay (FIG. 1). Compounds B3, B5, B7, B11 and B12 were added at 20 μM and 10 μM respectively for the MDA-MB-468 (FIG. 2A) and Panc-1 proliferation assays (FIG. 2B). Plates were incubated for 72 h (37° C., 5% CO2). Percent viability compared to DMSO control was determined using an MTS assay (CellTiter 96 Aqueous, Promega) according to the manufacturer's standard protocol. The standard used in the SK-MEL-28 assay is MG132, a proteasome inhibitor, at 10 uM concentration. It was used as a positive control for cell killing. All the assays are referenced to DMSO as the control at 100% proliferation.

[4] = tested on: SK-MEL-28 (metastatic melanoma) cell line; test: SK-MEL-28 proliferation assay (MTS, percent viability vs DMSO); type: cell-based; conditions: 72 h, FIG. 1
Method: as §1

[5] = tested on: MDA-MB-468 (breast cancer) cell line; test: MDA-MB-468 proliferation assay (MTS); type: cell-based; conditions: for growth rate: 72 h, DMSO control = 100%
Method: as §1

[6] = SK-MEL-28, tested at 20 μM and 10 μM

SMILES	result in TNF-α induced NFkB reporter assay [2]	inhibitory effect on proliferation [4, 6]	growth rate ([5]; MDA-MB-468, 20 μM) [%]	also measured
COCC(=O)N[C@@H](Cc1ccc(-c2cc(Cl)cc(Cl)c2)cc1)[C@H](O)[C@@H](O)C(=O)O [CC0651]	–	–	–	inhibition of hCdc34 [1]: inhibits
CCOCC(=O)NC(Cc1ccc(-c2cc(Cl)cc(Cl)c2)cc1)C(O)C(O)C(=O)OCC (centres unmarked) [Compound B1]	good results	–	–	–
CCOC(=O)C(O)C(O)C(Cc1ccc(-c2cc(Cl)cc(Cl)c2)cc1)NC(=O)CCl (centres unmarked) [Compound B3]	–	good inhibitory effect	5.5	growth rate ([3]; Panc-1, 10 μM): 4.8%; growth rate ([3]; Panc-1, 20 μM): 5.2%; inhibitory effect on proliferation ([3]; Panc-1, at both concentrations (20 μM and 10 μM)): good inhibitory effect; growth rate ([5]; MDA-MB-468, 10 μM): 6.0%; inhibitory effect on proliferation ([5]; MDA-MB-468, at both concentrations (20 μM and 10 μM)): good inhibitory effect
CCOC(=O)C(O)C(O)C(Cc1ccc(-c2cc(Cl)cc(Cl)c2)cc1)NC(=O)[C@H]1CCCO1 (some centres unmarked) [Compound B4]	good results	–	–	–
CCOC(=O)C(O)C(O)C(Cc1ccc(-c2cc(Cl)cc(Cl)c2)cc1)NC(=O)[C@@H]1CCCN1C(=O)OC(C)(C)C (some centres unmarked) [Compound B5]	good results	good inhibitory effect	33.5	–
CCOC(=O)C(O)C(O)C(Cc1ccc(-c2cc(Cl)cc(Cl)c2)cc1)NC(=O)CNC(=O)OC(C)(C)C (centres unmarked) [Compound B7]	–	good inhibitory effect	–	–
CCOC(=O)C(O)C(O)C(Cc1ccc(-c2cc(Cl)cc(Cl)c2)cc1)NC(=O)CN (centres unmarked) [Compound B11]	–	good inhibitory effect	–	–
CCOC(=O)C(O)C(O)C(Cc1ccc(-c2cc(Cl)cc(Cl)c2)cc1)NC(=O)[C@H](C)N (some centres unmarked) [Compound B12]	–	–	11.0	inhibitory effect on TNF-α induced NFkB luciferase signal ([2]; 20 μM): excellent inhibitory effect; growth rate ([3]; Panc-1, 20 μM): 24.4%; fold more effective than the control ([4]; SK-MEL-28, 20 μM): about 20 fold; inhibitory effect on proliferation ([4]; SK-MEL-28, 20 μM): excellent inhibitory effect
